In patent US7704995B2 (Exelixis, Inc., priority 2003, dated 2010):

Molecular target: T1, Chk1 (Homo sapiens, UniProt O14757)
T1 construct: purchased Upstate Biotechnology
T1 sequence (O14757 1-476): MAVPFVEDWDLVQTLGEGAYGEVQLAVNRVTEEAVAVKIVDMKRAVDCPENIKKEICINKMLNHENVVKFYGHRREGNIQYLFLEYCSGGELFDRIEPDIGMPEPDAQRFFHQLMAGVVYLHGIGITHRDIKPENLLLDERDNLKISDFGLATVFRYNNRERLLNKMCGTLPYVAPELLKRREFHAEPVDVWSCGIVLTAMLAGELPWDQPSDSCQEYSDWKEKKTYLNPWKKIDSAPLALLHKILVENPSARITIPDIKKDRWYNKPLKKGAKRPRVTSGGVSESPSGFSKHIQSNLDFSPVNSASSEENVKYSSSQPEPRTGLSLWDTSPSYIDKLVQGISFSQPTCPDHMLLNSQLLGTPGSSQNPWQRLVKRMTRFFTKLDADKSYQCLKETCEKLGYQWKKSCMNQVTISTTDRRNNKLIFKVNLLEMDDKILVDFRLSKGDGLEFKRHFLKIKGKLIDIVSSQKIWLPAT
Assay: Chk1 kinase assay: incorporation of γ-33P ATP into immobilized myelin basic protein
Assay type: biochemical
Details: Table 11, Chk1 only; class symbols A-D; read-out: Chk1 IC50
Procedure, shortened: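 MBP coated on plates (20 μg/ml) was phosphorylated by Chk1 (10 nM) or Chk2 (20 nM) with γ-33P ATP plus 10 μM (Chk1) or 30 μM (Chk2) unlabeled ATP, 1 h at room temperature, 1% DMSO. Bound radioactivity was counted by scintillation after washing; IC50 or Ki derived from fitted rate data.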

Row | Compound | IC50
1 | Nc1ncc(-c2cccc(C(=O)NCc3ccc(-c4ccccc4)cc3)c2)nc1C(=O)N[C@H]1CCCNC1 [Example 844, 3-amino-6-(3-{[(biphenyl-4-ylmethyl)amino]carbonyl}phenyl)-N-[(3S)-piperidin-3-yl]pyrazine-2-carboxamide] | < 50 nM
2 | Nc1ncc(-c2cccc(C(=O)NCc3ccc(-c4cnns4)cc3)c2)nc1C(=O)N[C@H]1CCCNC1 [Example 845, 3-amino-N-[(3S)-piperidin-3-yl]-6-{3-[({[4-(1,2,3-thiadiazol-5-yl)phenyl]methyl}amino)carbonyl]phenyl}pyrazine-2-carboxamide] | < 50 nM
3 | Nc1ncc(-c2cccc(C(=O)NCc3ccccc3OC(F)(F)F)c2)nc1C(=O)N[C@H]1CCCNC1 [Example 846, 3-amino-N-[(3S)-piperidin-3-yl]-6-(3-{[({2-[(trifluoromethyl)oxy]phenyl}methyl)amino]carbonyl}phenyl)pyrazine-2-carboxamide] | < 50 nM
4 | Nc1ncc(-c2cccc(C(=O)NCc3ccccc3-c3ccccc3)c2)nc1C(=O)N[C@H]1CCCNC1 [Example 847, 3-amino-6-(3-{[(biphenyl-2-ylmethyl)amino]carbonyl}phenyl)-N-[(3S)-piperidin-3-yl]pyrazine-2-carboxamide] | < 50 nM
5 | Nc1ncc(-c2cccc(C(=O)NCc3ccc(F)cc3F)c2)nc1C(=O)N[C@H]1CCCNC1 [Example 848, 3-amino-6-[3-({[(2,4-difluorophenyl)methyl]amino}carbonyl)phenyl]-N-[(3S)-piperidin-3-yl]pyrazine-2-carboxamide] | < 50 nM
6 | Nc1ncc(-c2cccc(C(=O)NCc3ccc(Cl)cc3F)c2)nc1C(=O)N[C@H]1CCCNC1 [Example 849, 3-amino-6-[3-({[(4-chloro-2-fluorophenyl)methyl]amino}carbonyl)phenyl]-N-[(3S)-piperidin-3-yl]pyrazine-2-carboxamide] | < 50 nM
7 | Nc1ncc(-c2cccc(C(=O)NCc3ccc(F)c(C(F)(F)F)c3)c2)nc1C(=O)N[C@H]1CCCNC1 [Example 850, 3-amino-6-{3-[({[4-fluoro-3-(trifluoromethyl)phenyl]methyl}amino)carbonyl]phenyl}-N-[(3S)-piperidin-3-yl]pyrazine-2-carboxamide] | < 50 nM
8 | Nc1ncc(-c2cccc(C(=O)NCc3ccc4ccccc4c3)c2)nc1C(=O)N[C@H]1CCCNC1 [Example 851, 3-amino-6-(3-{[(naphthalen-2-ylmethyl)amino]carbonyl}phenyl)-N-[(3S)-piperidin-3-yl]pyrazine-2-carboxamide] | < 50 nM
9 | CN(C)c1ccc(CNC(=O)c2cccc(-c3cnc(N)c(C(=O)N[C@H]4CCCNC4)n3)c2)cc1 [Example 852, 3-amino-6-{3-[({[4-(dimethylamino)phenyl]methyl}amino)carbonyl]phenyl}-N-[(3S)-piperidin-3-yl]pyrazine-2-carboxamide] | < 50 nM
10 | Nc1ncc(-c2cccc(C(=O)NCc3ccc4c(c3)OCO4)c2)nc1C(=O)N[C@H]1CCCNC1 [Example 853, 3-amino-6-(3-{[(1,3-benzodioxol-5-ylmethyl)amino]carbonyl}phenyl)-N-[(3S)-piperidin-3-yl]pyrazine-2-carboxamide] | < 50 nM
11 | COc1ccccc1CNC(=O)c1cccc(-c2cnc(N)c(C(=O)N[C@H]3CCCNC3)n2)c1 [Example 855, 3-amino-6-{3-[({[2-(methyloxy)phenyl]methyl}amino)carbonyl]phenyl}-N-[(3S)-piperidin-3-yl]pyrazine-2-carboxamide] | < 50 nM
12 | COc1ccc(CNC(=O)c2cccc(-c3cnc(N)c(C(=O)N[C@H]4CCCNC4)n3)c2)c(OC)c1 [Example 856, 3-amino-6-{3-[({[2,4-bis(methyloxy)phenyl]methyl}amino)carbonyl]phenyl}-N-[(3S)-piperidin-3-yl]pyrazine-2-carboxamide] | < 50 nM
13 | Cc1cc(Cl)ccc1CNC(=O)c1cccc(-c2cnc(N)c(C(=O)N[C@H]3CCCNC3)n2)c1 [Example 857, 3-amino-6-[3-({[(4-chloro-2-methylphenyl)methyl]amino}carbonyl)phenyl]-N-[(3S)-piperidin-3-yl]pyrazine-2-carboxamide] | < 50 nM
14 | Cc1ccc(CNC(=O)c2cccc(-c3cnc(N)c(C(=O)N[C@H]4CCCNC4)n3)c2)c(F)c1F [Example 858, 3-amino-6-[3-({[(2,3-difluoro-4-methylphenyl)methyl]amino}carbonyl)phenyl]-N-[(3S)-piperidin-3-yl]pyrazine-2-carboxamide] | < 50 nM
15 | CS(=O)(=O)c1ccc(CNC(=O)c2cccc(-c3cnc(N)c(C(=O)N[C@H]4CCCNC4)n3)c2)cc1 [Example 859, 3-amino-6-{3-[({[4-(methylsulfonyl)phenyl]methyl}amino)carbonyl]phenyl}-N-[(3S)-piperidin-3-yl]pyrazine-2-carboxamide] | < 50 nM
16 | Nc1ncc(-c2cccc(C(=O)NCc3ccc4c(c3)OCCO4)c2)nc1C(=O)N[C@H]1CCCNC1 [Example 860, 3-amino-6-(3-{[(2,3-dihydro-1,4-benzodioxin-6-ylmethyl)amino]carbonyl}phenyl)-N-[(3S)-piperidin-3-yl]pyrazine-2-carboxamide] | < 50 nM
17 | Nc1ncc(-c2cccc(C(=O)NCc3ccc(Cl)cc3)c2)nc1C(=O)N[C@H]1CCCNC1 [Example 861, 3-amino-6-[3-({[(4-chlorophenyl)methyl]amino}carbonyl)phenyl]-N-[(3S)-piperidin-3-yl]pyrazine-2-carboxamide] | < 50 nM
18 | Nc1ncc(-c2cccc(C(=O)NCc3cc(Cl)ccc3F)c2)nc1C(=O)N[C@H]1CCCNC1 [Example 862, 3-amino-6-[3-({[(5-chloro-2-fluorophenyl)methyl]amino}carbonyl)phenyl]-N-[(3S)-piperidin-3-yl]pyrazine-2-carboxamide] | < 50 nM
19 | Nc1ncc(-c2cccc(CN[C@H]3CCc4ccccc43)c2)nc1C(=O)N[C@H]1CN2CCC1CC2 [Example 863, 3-amino-N-[(3R)-1-azabicyclo[2.2.2]oct-3-yl]-6(3-{[(1S)-2,3-dihydro-1H-inden-1-ylamino]methyl}phenyl)pyrazine-2-carboxamide] | 50 to 1000 nM
20 | CSc1ccc(CNC(=O)c2cccc(-c3cnc(N)c(C(=O)N[C@H]4CCCNC4)n3)c2)cc1 [Example 864, 3-amino-6-{3-[({[4-(methylthio)phenyl]methyl}amino)carbonyl]phenyl}-N-[(3S)-piperidin-3-yl]pyrazine-2-carboxamide] | < 50 nM
21 | Nc1ncc(-c2cccc(C(=O)NCc3ccc(F)cc3F)c2)nc1-c1nc([C@H]2CCCNC2)n[nH]1 [Example 865, 3-(5-amino-6-{3-[(3S)-piperidin-3-yl]-1H-1,2,4-triazol-5-yl}pyrazin-2-yl)-N-[(2,4-difluorophenyl)methyl]benzamide] | < 50 nM
22 | Nc1ncc(-c2cccc(C(=O)NC(Cc3ccccc3)c3ccccc3)c2)nc1C(=O)N[C@H]1CCCNC1 (stereo partly drawn) [Example 866, 3-amino-6-(3-{[(1,2-diphenylethyl)amino]carbonyl}phenyl)-N-[(3S)-piperidin-3-yl]pyrazine-2-carboxamide] | < 50 nM
23 | Nc1ncc(-c2cccc(C(=O)NCc3ccc(F)c(F)c3)c2)nc1-c1nc([C@H]2CCCNC2)n[nH]1 [Example 867, 3-(5-amino-6-{3-[(3S)-piperidin-3-yl]-1H-1,2,4-triazol-5-yl}pyrazin-2-yl)-N-[(3,4-difluorophenyl)methyl]benzamide] | < 50 nM
24 | Nc1ncc(-c2cccc(C(=O)NCc3cc(F)cc(F)c3)c2)nc1C(=O)N[C@H]1CCCNC1 [Example 868, 3-amino-6-[3-({[(3,5-difluorophenyl)methyl]amino}carbonyl)phenyl]-N-[(3S)-piperidin-3-yl]pyrazine-2-carboxamide] | < 50 nM
25 | COC(=O)c1ccc(CNC(=O)c2cccc(-c3cnc(N)c(C(=O)N[C@H]4CCCNC4)n3)c2)cc1 [Example 869, methyl 4-[({[3-(5-amino-6-{[(3S)-piperidin-3-ylamino]carbonyl}pyrazin-2-yl)phenyl]carbonyl}amino)methyl]benzoate] | < 50 nM
26 | Nc1ncc(-c2cccc(C(=O)NCc3ccc(Br)cc3)c2)nc1C(=O)N[C@H]1CCCNC1 [Example 870, 3-amino-6-[3-({[(4-bromophenyl)methyl]amino}carbonyl)phenyl]-N-[(3S)-piperidin-3-yl]pyrazine-2-carboxamide] | < 50 nM
27 | Nc1ncc(-c2cccc(C(=O)NCc3ccc(Br)cc3F)c2)nc1C(=O)N[C@H]1CCCNC1 [Example 871, 3-amino-6-[3-({[(4-bromo-2-fluorophenyl)methyl]amino}carbonyl)phenyl]-N-[(3S)-piperidin-3-yl]pyrazine-2-carboxamide] | < 50 nM
28 | Nc1ncc(-c2cccc(C(=O)NCc3ccccc3Br)c2)nc1C(=O)N[C@H]1CCCNC1 [Example 872, 3-amino-6-[3-({[(2-bromophenyl)methyl]amino}carbonyl)phenyl]-N-[(3S)-piperidin-3-yl]pyrazine-2-carboxamide] | < 50 nM
29 | Nc1ncc(-c2cccc(C(=O)NCc3ccc(F)cc3C(F)(F)F)c2)nc1C(=O)N[C@H]1CCCNC1 [Example 873, 3-amino-6-{3-[({[4-fluoro-2-(trifluoromethyl)phenyl]methyl}amino)carbonyl]phenyl}-N-[(3S)-piperidin-3-yl]pyrazine-2-carboxamide] | < 50 nM
